This note sets out measurements from BindingDB's records for doi:10.1021/jm990947f (University of Nottingham, 2000).

Test [1] is described as follows: Inhibition of IGF-I stimulated MCF-7 human breast tumor cell proliferation.
Test [2] in a line: Inhibition of IGF-II stimulated MCF-7 human breast tumor cell proliferation.

In the case of `COc1cc(/C=C(\C#N)c2ccccn2)ccc1O`, the values for the IC50 in test [1] and in test [2] were 2.9 µM and 3.2 µM, respectively.
